Measurements: patent US20050011468A1, “Use of methylnaltrexone in treating gastrointestinal dysfunction in equines” (priority 2002, published 2005)

Columns and labels:
[1] = cited from earlier work
[2] = system: morphine-induced rage; settings: in an animal; cited from earlier work
[3] = in vivo; cited from earlier work
[4] = system: bowel peristalsis / gastric emptying; settings: one burn patient with postoperative colic; infusion 0.3 mg/kg over 15 minutes; during drug administration; cited from earlier work
[5] = system: bowel peristalsis / gastric emptying; experiment: postoperative colic (ileus) in a burn patient treated with methylnaltrexone infusion; assay type: in vivo, human; settings: following administration of the drug (unpublished data)
From the text: Recent human data support the role of endogenous opioids, including endorphins, in the pathogenesis of postoperative ileus in humans. See Taguchi A., et al., “Selective postoperative inhibition of gastrointestinal opioid receptors,” New Engl. J. Med. 345:935-40, 2001. No reference is made to either equine colic or the etiology of perioperative management of equines or other animals. […] Prior to administration, there had been no evidence of bowel peristalsis and no passage of flatus. See Moss J., et al., “Selective postoperative inhibition of gastrointestinal opioid receptors,” (correspondence) New Engl. J. Med. 346(6):455 (2002).

[6] = system: gut motility; settings: β-endorphin homologues from six species; read-out: IC50 on the standard model of gut motility; cited from earlier work

## C[N@+]1(CC2CC2)CC[C@]23c4c5ccc(O)c4O[C@H]2C(=O)CC[C@@]3(O)[C@H]1C5 [methylnaltrexone]
[1]; from the stomach and bowel
  absorption after oral administration: rapidly absorbed
[1]; oral administration, non-enteric coated compound
  time to initial plasma levels: 5 to 10 min
[2]
  severity of morphine-induced rage: minimize the severity
[3]
  crossing of the blood-brain-barrier: does not cross the blood-brain-barrier
[4]
  bowel sounds and flatus: prompt restoration of bowel sounds and flatus
[5]
  gastric residuals: markedly reduced

## human endorphin: human homologue of β-endorphin, IC50 printed as 'that of humans'
[6]
  IC50: 12.2 nM
